According to patent US20100286023A1, “Compositions and Methods for Increasing Muscle Mass, Strength, and Functional Performance in the Elderly” (priority 2008, published 2010):

Experiments:
muscle protein synthesis = conditions: tightly controlled laboratory setting, glucose infused to maintain euglycemia; cited from earlier work
anesthetized rabbits = assay: Amino acid infusion with arginine raised to about 50% of the mixture (Example 6); assay type: in vivo, rabbit
Description: Muscle protein synthesis was stimulated in anesthetized rabbits when arginine was increased to about 50% of the total mixture of amino acids infused. […] The mechanism by which arginine activates the initiation of protein synthesis is the same as leucine. Further, arginine is relatively deficient in the elderly. Thus, addition of arginine may work in concert with leucine to activate protein synthesis in elderly.

Compound	Effect on muscle protein synthesis compared with EAAs (muscle protein synthesis)	Muscle protein synthesis (anesthetized rabbits; arginine about 50% of the total mixture of amino acids infused)	Muscle protein breakdown (anesthetized rabbits; arginine added to the amino acid solution)	Net muscle catabolism (anesthetized rabbits; post-absorptive rabbits)
insulin: hormone, pharmacological treatment compared with EAAs	in the same range of effectiveness as EAAs			
N=C(N)NCCC[C@H](N)C(=O)O [arginine]		stimulated	unchanged	virtually completely reversed
